Earlier results as cited in patent US20200315935A1, “TOPICALLY APPLICABLE CHEMICAL PEEL COMPOSITION” (L'OREAL, priority 2015, published 2020).
Like-named read-outs stand apart in the source and are kept apart here.

What was measured:
[1] = acute oral toxicity, mutagenicity, skin irritation, skin sensitization, and phototoxicity

| Compound | pKA | adverse effects in basic toxicological tests ([1]; listed as Phenylethyl resorcinol) | adverse effects in basic toxicological tests ([1]; listed as phenylethyl resorcinol) |
| --- | --- | --- | --- |
| CC(c1ccccc1)c1ccc(O)cc1O (stereo not shown) [Phenylethyl Resorcinol] | 9.77-10.77 | not shown adverse effects | not been shown to have adverse effects |
| Oc1cccc(O)c1 [Resorcinol, reference compound] | 9.32-9.81 | – | – |
